Measurements from the NIST ThermoML archive (doi:10.1021/je034076x).
Numbers after ± are expanded uncertainties.

Conditions: 101.33 kPa, Liquid; for viscosity: Capillary tube (Ostwald / Ubbelohde) method; for speed of sound: Pulse-echo method; for mass density: Vibrating tube method

viscosity (283.15 K) | speed of sound (283.15 K) | mass density (283.15 K) | viscosity (298.15 K) | speed of sound (298.15 K) | mass density (298.15 K) | viscosity (313.15 K) | speed of sound (313.15 K) | mass density (313.15 K) | Structure (SMILES)
0.5438 ± 0.0055 mPa·s | 1348.8 ± 1.2 m/s | 898.62 ± 0.47 kg/m3 | 0.4645 ± 0.0048 mPa·s | 1279 ± 1.2 m/s | 882.18 ± 0.46 kg/m3 | 0.3992 ± 0.0043 mPa·s | 1204.8 ± 1.2 m/s | 865.95 ± 0.45 kg/m3 | C1CCOC1 [tetrahydrofuran]
2.694 ± 0.02 mPa·s | 872.7 ± 0.5 m/s | 1408.1 ± 0.3 kg/m3 | 1.755 ± 0.013 mPa·s | 833.2 ± 0.5 m/s | 1382.56 ± 0.28 kg/m3 | 1.208 ± 0.0095 mPa·s | 793.3 ± 0.5 m/s | 1356.89 ± 0.27 kg/m3 | OCC(F)(F)F [2,2,2-trifluoroethanol]
